From patent publication US20220275458A1, “PREDICTION OF CANCER THERAPY EFFICACY” (UNIVERSITY OF MASSACHUSETTS, priority 2019, published 2022)

How the values were obtained:
RPE1 cells [1] = test: Cell survival assays in Control, FANCJ K/O and BRCA1 K/O RPE1 cells; assay type: cell-based, human; details: for sensitivity at therapeutic range: 0.5 uM Olaparib
Experimental: (§1) Cells were seeded onto 96-well plates (500 cells per well, performed in triplicate for each experiment group) and incubated overnight. The next day, cells were treated with increasing doses of drugs indicated in corresponding figures and maintained in complete media for 5 to 7 days. Percentage survival was measured photometrically using a CellTiter-Glo 2.0 viability assay (Promega) in a microplate reader (Beckman Coulter DTX 880 Multimode Detector).

U2OS cells = test: Electron microscopy of reversed replication forks; assay type: cell-based, human; details: 4 mM HU
Experimental: To investigate the effect of TLS on the fine replication fork architecture, psoralen cross-linking coupled to reversed fork intermediates were detected with electron microscopy (EM) with or without elevated TLS. Following 4 mM HU treatment, a substantial fraction of reversed replication forks were found in FANCJ^WT and empty vector U2OS cells (˜26% and 23%, respectively). […] See, FIG. 6D.
For the EM analysis of replication intermediates, 5-10×10^6 U2OS cells treated with or without 4 mM HU were collected and genomic DNA was cross-linked by two rounds of incubation in 10 μg ml-1 4,5,8-trimethylpsoralen (Sigma-Aldrich) and 3 min of irradiation with 366 nm UV light on a precooled metal block10,26. Cells were lysed and genomic DNA was isolated from the nuclei by proteinase K (Roche) digestion and phenol-chloroform extraction. DNA was purified by isopropanol precipitation, digested with PvuII HF in the proper buffer for 3-5 h at 37° C. and replication intermediates were enriched on a benzoylated naphthoylated DEAE-cellulose (Sigma-Aldrich) column. EM samples were prepared by spreading the DNA on carbon-coated grids in the presence of benzyl-dimethyl-alkylammonium chloride and visualized by platinum rotary shadowing. Images were acquired on a transmission electron microscope (JEOL 1200 EX) with side-mounted camera (AMTXR41 supported by AMT software v601) and analyzed with ImageJ (National Institutes of Health). EM analysis allows distinguishing duplex DNA—which is expected to appear as a 10 nm thick fiber, after the platinum/carbon coating step necessary for EM visualization—from ssDNA, which has a reduced thickness of 5-7 nm. The criteria used for the unequivocal assignment of reversed forks include the presence of a rhomboid structure at the junction itself in order to provide a clear indication that the junction is opened up and that the four-way junction structure is not simply the result of the occasional crossing of two DNA molecules^25. […]

[2] = system: pro-TLS U2OS and HCT15 cells; test: Colony formation assay with ATRi or Wee1i alone or with TLSi; assay type: cell-based, human; details: for clonogenic survival: pro-TLS U2OS cells compared to non-TLS dependent cells; for response in colony formation assay: pro-TLS cancer cell line HCT15
Experimental: Currently, there is a major clinical effort to combat cancer by induction of replication stress through inhibition of ATR or the mitotic checkpoint kinase, Wee1 (Bukhari et al., 2019). Given that these drugs induce replication gaps, it was considered that if gaps were the sensitizing lesion, TLS could also interfere with their effectiveness. […] See, FIG. 55A, 5B and FIG. 56A-D; (Bukhari et al., 2019).
For colony formation assays either 500 or 1000 cells per well were seeded into 6 well plates and were treated continuously with or without TLSi. Once the colonies had developed, the cells were fixed with 90% methanol and then stained with 0.05% (w/v) crystal violet solution. Plates were then imaged using ChemiDocTM Touch Imaging System (BioRad).

[3] = system: TLS cancer vs non-TLS cancer or non-cancer cells; test: Combined assay: EdU replication and ssDNA gaps (TLS specificity); assay type: cell-based, human; details: U2OS cell lines; HU plus ATR inhibitor
Experimental: A combination assay was performed in a high-throughput manner using 384-well plates. This assay served as a rapid and efficient method to determine the anti-TLS activity of the lead compounds and novel analogues. […] Specifically, the assay identifies compounds that cause TLS cells, but not non-TLS cells, to lose replication (green) and gain ssDNA gaps (red). […] Colors can be identified using a high content and high throughput imaging camera. […] Moreover, red and green fluorescent readouts are readable/quantifiable from full well images at 20×. Several positive and negative controls that may be employed in parallel with the screen to induce gaps or suppress gaps. In particular, under these assay conditions replication with gaps are induced when ATR is inhibited.
A combined assay can be performed to first analyze the ability of these TLSi's to inhibit global replication with concomitant induction of ssDNA in TLS cancer vs non-TLS cancer or non-cancer cells. Second, a colony formation assays in each of these models to determine whether the TLSi's selectively reduce colony formation in TLS cancer cells.
Immunofluorescence was performed as described previously^27. Cells were grown on coverslips in 10 μM BrdU for 48 h before the treatment with drugs. Cells were then treated with the aforementioned drugs for 2 h. […]

BR5-R1 cells = test: Cell survival assays for T2, BR5 and BR5-R1 cells; assay type: cell-based, mouse; details: BR5-R1 PARPi-resistant cells; VE-821 1 μM co-incubated with olaparib
Experimental: To determine whether gap suppression mechanisms occur in models of de novo PARPi resistance, cell lines were analyzed that were initially sensitive to PARPi and then had gained PARPi resistance while propagated in tissue culture^41. BRCA1-deficient mouse ovarian tumor cell line, BR5, was utilized and its derived PARPi-resistant cell line, BR5-R1^41. PARPi sensitivity of BR5 was confirmed as compared to BR5-R1 and BRCA1 proficient T2 cells. See, FIG. 41A. […] See, FIG. 41B. […] See, FIGS. 41B and 41C. Thus, BR5-R1 cells resemble FANCJ deficient cells, in that they both lack PARPi induced-sensitivity, lengthening, or gaps, but remain sensitive to cisplatin. See, FIG. 42A. […] See, FIGS. 41A, 41C and 42A.
as §1

PEO1 and C4-2 cells = test: Cell survival assay, cisplatin, PEO1 and C4-2; assay type: cell-based, human
Experimental: Cells were plated at 500 cells per well in the center wells of a 96 well plate in 200 ul volume and allowed to adhere for 36 h. Subsequently, drugs were added in a 100 ul volume and the cells were incubated for 10 days. CellTiter-Glo 2.0 (Promega) was used to quantify cell number by ATP. To prevent evaporation, all blank wells in the 96 well plate were filled with media, and each plate was placed in a humid chamber with PBS.

[4] = system: BRCA-RAD51 pathway proficient or deficient cell lines; test: PARPi response of model cell systems (Table 4 summary); assay type: cell-based
Experimental: In the above tested model systems, HR or FP sometimes correlate with PARPi resistance whereas ssDNA gap suppression always correlates. Moreover, defects in HR or FP sometimes correlate with PARPi sensitivity whereas gaps always correlate.
as §1

RPE1 cells [5] = test: DNA fiber assay following olaparib treatment; assay type: cell-based, human; details: 10 μM olaparib, 2 h
Experimental: Cells were labeled by sequential incorporation of two different nucleotide analogs, IdU and CldU, into nascent DNA strands for the indicated time and conditions. After nucleotide analogs were incorporated in vivo, the cells were collected, washed, spotted, and lysed on positively charged microscope slides by […] spreading buffer for 8 min at room temperature. For experiments with the ssDNA-specific endonuclease S1, after the CldU pulse, cells were treated with CSK100 buffer for 10 min at room temperature, then incubated with S1 nuclease buffer with or without 20 U/mL S1 nuclease (Invitrogen, 18001-016) for 30 min at 37 C. The cells were then scraped in PBS +0.1% BSA and centrifuged at 7,000 rpm for 5 min at 4 C. Cell pellets were resuspended at […] and lysed with lysis solution on slides. Individual DNA fibers were released and spread by tilting the slides at 45 degrees. After air-drying, fibers were fixed by 3:1 methanol/acetic acid at room temperature for 3 min. After air-drying again, fibers were rehydrated in PBS, denatured with 2.5 M HCl for 30 min, washed with PBS, and blocked with blocking buffer for 1 hr. […] Finally, visualization of green and/or red signals by fluorescence microscopy (Axioplan 2 imaging, Zeiss) provided information about the active replication directionality at the single-molecule level.

## CC[C@@]1(O)C(=O)OCc2c1cc1n(c2=O)Cc2cc3ccccc3nc2-1 [CPT, camptothecin]
RPE1 cells [1]; FANCJ K/O RPE1 cells, CPT
  sensitivity in cell survival assay: sensitive

## NC(=O)NO [HU, hydroxyurea]
U2OS cells; FANCJ S990A U2OS cells
  frequency of fork reversal events: ~11%
U2OS cells; FANCJ WT U2OS cells
  fraction of reversed replication forks: ~26%
U2OS cells; empty vector U2OS cells
  fraction of reversed replication forks: 23%

## C=CCn1c(=O)c2cnc(Nc3ccc(N4CCN(C)CC4)cc3)nc2n1-c1cccc(C(C)(C)O)n1 [MK1775]
[2]
  clonogenic survival: greater clonogenic survival
  response in colony formation assay: resistance

## CS(=O)(=O)c1ccc(-c2cnc(N)c(C(=O)Nc3ccccc3)n2)cc1 [VE-821]
[3]
  replication and ssDNA gaps during stress: promoted replication during stress, but with significant ssDNA gap induction
BR5-R1 cells
  effect on PARPi sensitivity: re-established PARPi sensitivity
[2]
  clonogenic survival: greater clonogenic survival
  response in colony formation assay: resistance

## N.N.[Cl][Pt][Cl] [cisplatin]
RPE1 cells [1]; BRCA1 K/O RPE1 cells, cisplatin
  sensitivity in cell survival assay: sensitive
RPE1 cells [1]; FANCJ K/O RPE1 cells, cisplatin
  sensitivity in cell survival assay: sensitive
PEO1 and C4-2 cells; C4-2 cells, BRCA2 proficient PEO1 reversion line
  cisplatin response: resistant
PEO1 and C4-2 cells; PEO1 cells, truncated BRCA2
  cisplatin response: hypersensitive

## O=C(c1cc(Cc2n[nH]c(=O)c3ccccc23)ccc1F)N1CCN(C(=O)C2CC2)CC1 [olaparib]
RPE1 cells [1]; BRCA1 K/O RPE cells
  sensitivity at therapeutic range: sensitive
RPE1 cells [1]; control and FANCJ K/O cells
  sensitivity at therapeutic range: not sensitive
RPE1 cells [1]; BRCA1 K/O RPE1 cells, olaparib
  sensitivity in cell survival assay: sensitive
RPE1 cells [1]; FANCJ K/O RPE1 cells, olaparib
  sensitivity in cell survival assay: not sensitize
[4]; BRCA1/2 deficient
  PARPi response: sensitive
[4]; BRCA1/2 proficient
  PARPi response: resistant
[4]; BRCA1 and 53BP1 deficient
  PARPi response: resistant
[4]; BRCA2 S3291A mutant
  PARPi response: resistant
[4]; BRCA2 and CHD4 deficient
  PARPi response: resistant
[4]; FANCJ deficient
  PARPi response: resistant
[4]; RAD51 T131P mutant
  PARPi response: sensitive
[4]; RAD51 T131P mutant and RADX deficient
  PARPi response: sensitive
RPE1 cells [5]
  replication tract length: lengthens replication tracts
